≈ marks a conversion by molar mass, not a printed value.
What was measured:
[1] = tested on: MRSA; conditions: literature value; cited from earlier work
Text: TABLE 1 Literature MIC values for tested antibiotics | column: MIC (µg/ml) (reference[s]) / MRSA

[2] = tested on: E. coli ATCC 25922; test: microbe, parasite or virus in culture; conditions: Escherichia coli, n = 2
In short: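 Broth microdilution with 2-fold serial compound dilutions in MH broth, using cultures diluted 40-fold and grown at 37°C for 2 to 3 h, with or without Tween. Variants included 2% beractant added to mid-log cultures, or 50% human serum in MHB.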

[3] = tested on: S. pneumoniae ATCC 33440; test: microbe, parasite or virus in culture; conditions: Streptococcus pneumoniae, n = 2
In short: (§1)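 MH broth with or without Tween received a 40-fold dilution of each culture, held at 37°C for 2–3 h. Twofold dilution series of the compounds and standard antibiotics are run in 96-well plates.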

[4] = tested on: P. aeruginosa ATCC 10145; test: microbe, parasite or virus in culture; conditions: Pseudomonas aeruginosa, n = 2
In short: as §1

[5] = tested on: MSSA S. aureus ATCC 25923; test: microbe, parasite or virus in culture; conditions: Staphylococcus aureus, n = 2
In short: as §1

[6] = tested on: S. aureus GISA NRS 2; ATCC 700698; test: microbe, parasite or virus in culture; conditions: Staphylococcus aureus, n = 2
In short: as §1

[7] = tested on: S. pneumoniae ATCC 700677 (MDR); test: microbe, parasite or virus in culture; conditions: Streptococcus pneumoniae, ATCC700677
In short: as §1

[8] = tested on: E. faecalis ATCC 29212; test: microbe, parasite or virus in culture; conditions: Enterococcus faecalis, n = 2
In short: as §1

[9] = tested on: E. coli; conditions: literature value; cited from earlier work

O=C(O)c1cn(C2CC2)c2cc(N3CCNCC3)c(F)cc2c1=O [Ciprofloxacin, ciprofloxacin]
MIC (literature) [1]: 0.5 ([63]) µg/ml | MIC ([2]; ATCC25922, 24 h, Corning NBS, MH + 2% LHB, 2% LS): 0.03 to 0.06 mg/L | MIC ([2]; ATCC25922, 24 h, Corning NBS, MH + 2% LHB, 50% HS): ≤ 0.03 mg/L | MIC ([2]; ATCC25922, 24 h, Corning NBS, MH + 2% LHB, no additive): ≤ 0.03 mg/L | MIC ([2]; ATCC25922, 24 h, Corning NBS, MH + T80, 2% LS): ≤ 0.03 mg/L | MIC ([2]; ATCC25922, 24 h, Corning NBS, MH + T80, 50% HS): ≤ 0.03 mg/L | MIC ([2]; ATCC25922, 24 h, Corning PS, MH + 2% LHB, 2% LS): ≤ 0.03 mg/L | MIC ([2]; ATCC25922, 24 h, Corning PS, MH + 2% LHB, 50% HS): ≤ 0.03 mg/L | MIC ([2]; ATCC25922, 24 h, Corning PS, MH + 2% LHB, no additive): ≤ 0.03 mg/L | MIC ([2]; ATCC25922, 24 h, Corning PS, MH + T80, 2% LS): ≤ 0.03 mg/L | MIC ([2]; ATCC25922, 24 h, Corning PS, MH + T80, 50% HS): ≤ 0.03 mg/L | MIC ([2]; ATCC25922, 24 h, Corning TC, MH + 2% LHB, 2% LS): ≤ 0.03 mg/L | MIC ([2]; ATCC25922, 24 h, Corning TC, MH + 2% LHB, 50% HS): ≤ 0.03 mg/L | MIC ([2]; ATCC25922, 24 h, Corning TC, MH + 2% LHB, no additive): ≤ 0.03 mg/L | MIC ([2]; ATCC25922, 24 h, Corning TC, MH + T80, 2% LS): ≤ 0.03 mg/L | MIC ([2]; ATCC25922, 24 h, Corning TC, MH + T80, 50% HS): ≤ 0.03 mg/L | MIC ([2]; ATCC25922, 24 h, Trek PS, MH + 2% LHB, 2% LS): ≤ 0.03 mg/L | MIC ([2]; ATCC25922, 24 h, Trek PS, MH + 2% LHB, 50% HS): ≤ 0.03 mg/L | MIC ([2]; ATCC25922, 24 h, Trek PS, MH + 2% LHB, no additive): 0.03 to 0.06 mg/L | MIC ([2]; ATCC25922, 24 h, Trek PS, MH + T80, 2% LS): ≤ 0.03 mg/L | MIC ([2]; ATCC25922, 24 h, Trek PS, MH + T80, 50% HS): ≤ 0.03 mg/L | MIC ([2]; ATCC25922, Corning NBS plate, MHB +0.002% T80, no further additive): ≤ 0.03 mg/L | MIC ([2]; ATCC25922, Corning NBS plate, MHB −T80, no additive): ≤ 0.03 mg/L | MIC ([2]; ATCC25922, Corning NBS, MH, 2% LS): ≤ 0.03 mg/L | MIC ([2]; ATCC25922, Corning NBS, MH, 50% HS): ≤ 0.03 mg/L | MIC ([2]; ATCC25922, Corning PS plate, MHB +0.002% T80, no further additive): ≤ 0.03 mg/L | MIC ([2]; ATCC25922, Corning PS plate, MHB −T80, no additive): ≤ 0.03 mg/L | MIC ([2]; ATCC25922, Corning PS, MH, 2% LS): ≤ 0.03 mg/L | MIC ([2]; ATCC25922, Corning PS, MH, 50% HS): ≤ 0.03 mg/L | MIC ([2]; ATCC25922, Corning TC plate, MHB +0.002% T80, no further additive): ≤ 0.03 mg/L | MIC ([2]; ATCC25922, Corning TC plate, MHB −T80, no additive): ≤ 0.03 mg/L | MIC ([2]; ATCC25922, Corning TC, MH, 2% LS): ≤ 0.03 mg/L | MIC ([2]; ATCC25922, Corning TC, MH, 50% HS): ≤ 0.03 mg/L | MIC ([2]; ATCC25922, Nunc PS plate, MHB −T80): ≤ 0.03 mg/L | MIC ([2]; ATCC25922, Nunc U TC plate, MHB +0.002% T80): ≤ 0.03 mg/L | MIC ([2]; ATCC25922, Nunc U TC plate, MHB −T80): ≤ 0.03 mg/L | MIC ([2]; ATCC25922, Nunc flat TC plate, MHB +0.002% T80): ≤ 0.03 mg/L | MIC ([2]; ATCC25922, Nunc flat TC plate, MHB −T80): ≤ 0.03 mg/L | MIC ([2]; ATCC25922, Trek PS plate, MHB +0.002% T80, no further additive): ≤ 0.03 mg/L | MIC ([2]; ATCC25922, Trek PS plate, MHB −T80, no additive): ≤ 0.03 mg/L | MIC ([2]; ATCC25922, Trek PS, MH, 2% LS): ≤ 0.03 mg/L | MIC ([2]; ATCC25922, Trek PS, MH, 50% HS): ≤ 0.03 mg/L | MIC ([3]; ATCC33440, Corning NBS, MHB +T80): 0.25 to 1 mg/L (≈ 0.754 to 3.02 µM) | MIC ([3]; ATCC33440, Corning PS, MHB -T80): 0.25 to 0.5 mg/L (≈ 0.754 to 1.51 µM) | MIC ([3]; ATCC33440, Corning TC, MHB +T80): 0.25 to 0.5 mg/L (≈ 0.754 to 1.51 µM) | MIC ([3]; ATCC33440, Corning TC, MHB -T80): 0.25 to 0.5 mg/L (≈ 0.754 to 1.51 µM) | MIC ([4]; ATCC10145, Corning PS, MHB +T80): 0.25 to 0.5 mg/L (≈ 0.754 to 1.51 µM) | MIC ([4]; ATCC10145, Corning TC, MHB +T80): 0.25 to 0.5 mg/L (≈ 0.754 to 1.51 µM) | MIC ([4]; ATCC10145, Corning TC, MHB -T80): ≤ 0.03 mg/L | MIC ([5]; Corning NBS, MHB +T80): 0.5 to 1 mg/L (≈ 1.51 to 3.02 µM) | MIC ([5]; Corning PS, MHB +T80): 0.5 mg/L (≈ 1.51 µM) | MIC ([5]; Corning PS, MHB -T80): 0.25 to 0.5 mg/L (≈ 0.754 to 1.51 µM) | MIC ([5]; Corning TC, MHB +T80): 0.5 to 1 mg/L (≈ 1.51 to 3.02 µM) | MIC ([6]; Corning NBS, MHB +T80): 64 mg/L (≈ 193 µM) | MIC ([6]; Corning NBS, MHB -T80): 64 mg/L (≈ 193 µM) | MIC ([6]; Corning PS, MHB +T80): 64 mg/L (≈ 193 µM) | MIC ([6]; Corning TC, MHB +T80): 64 mg/L (≈ 193 µM) | MIC ([6]; Corning TC, MHB -T80): 32 to 64 mg/L (≈ 96.6 to 193 µM) | MIC [7]: 0.5 to 1 mg/L (≈ 1.51 to 3.02 µM) | MIC ([8]; ATCC29212, Corning NBS, MHB +T80): 2 mg/L (≈ 6.04 µM) | MIC ([8]; ATCC29212, Corning NBS, MHB -T80): 2 mg/L (≈ 6.04 µM) | MIC ([8]; ATCC29212, Corning TC, MHB +T80): 0.5 to 1 mg/L (≈ 1.51 to 3.02 µM) | MIC ([8]; ATCC29212, Corning TC, MHB -T80): 0.25 mg/L (≈ 0.754 µM) | MIC (literature) [9]: 0.03–0.06 ([64], [65]) µg/ml

Reference: article PMC6325200, “Effects of Microplate Type and Broth Additives on Microdilution MIC Susceptibility Assays” (Antimicrobial Agents and Chemotherapy, 2018)
